Values of other authors as cited in US20200121616A1, “COMPOSITIONS COMPRISING CANNABIDIOL AND HYALURONIC ACID FOR TREATING INFLAMMATORY JOINT DISEASES” (BOL PHARMA LTD., priority 2015, published 2020).

Hyaluronic acid
pKa: about 2.8
